Like-named read-outs stand apart in the source and are kept apart here.
Legend:
[1] = molecular target: T1, CCK-1 receptors (Rattus norvegicus, UniProt P30551); assay: Inhibition of binding of [125I]-BH-CCK-8 to isolated rat pancreatic acini; settings: for affinity for the CCK-1 receptors of the pancreatic acini of rat, in words: summary of Table 2
T1 construct: The pancreatic acini obtained from the outbred male rat pancreas of the Sprague Dawley strain; from tissue; host or cells: isolated pancreatic acini of male Sprague Dawley rats
T1 sequence (P30551 1-444): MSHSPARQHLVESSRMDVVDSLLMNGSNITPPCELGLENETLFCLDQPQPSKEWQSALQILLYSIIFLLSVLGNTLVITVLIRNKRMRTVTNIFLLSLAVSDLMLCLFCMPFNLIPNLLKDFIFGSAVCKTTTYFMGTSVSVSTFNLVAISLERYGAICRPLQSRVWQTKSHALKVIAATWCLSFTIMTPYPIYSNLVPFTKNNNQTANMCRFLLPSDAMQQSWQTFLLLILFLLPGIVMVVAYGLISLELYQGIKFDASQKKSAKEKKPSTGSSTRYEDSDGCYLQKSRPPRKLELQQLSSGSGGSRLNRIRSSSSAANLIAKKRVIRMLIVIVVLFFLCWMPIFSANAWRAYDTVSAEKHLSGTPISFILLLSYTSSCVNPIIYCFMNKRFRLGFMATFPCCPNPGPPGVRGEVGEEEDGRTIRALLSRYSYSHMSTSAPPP
Method: The pancreatic acini obtained from the outbred male rat pancreas of the Sprague Dawley strain, were incubated in the presence of radioactive tracers and the compound studied for 30 minutes at 37° C. After having discarded the supernatant, the radioactivity associated with the pellet was determined with a liquid scintillator. The specific binding was determined as the difference between the binding in the absence and in the presence of CCK-8, 1.10^−6M. […] The values of IC50 reported were calculated with the […] of a set of at least 3 experiences for each compound studied.

[2] = molecular target: T2, CCK-2 receptor (Cavia porcellus, UniProt H0VZC5); assay: Inhibition of the binding of [125I]-BH-CCK-8 to the cortical membrane of guinea pigs; set-up: species or system guinea pig; settings: 120 minutes at 25° C.; 25 pM marked binder; at least 3 tests
T2 construct: The incubation of the cerebral membranes together with the radioactive tracers and the compounds under study; from tissue; host or cells: cerebral cortex membranes of male albino Hartley guinea pigs
T2 sequence (H0VZC5 1-426): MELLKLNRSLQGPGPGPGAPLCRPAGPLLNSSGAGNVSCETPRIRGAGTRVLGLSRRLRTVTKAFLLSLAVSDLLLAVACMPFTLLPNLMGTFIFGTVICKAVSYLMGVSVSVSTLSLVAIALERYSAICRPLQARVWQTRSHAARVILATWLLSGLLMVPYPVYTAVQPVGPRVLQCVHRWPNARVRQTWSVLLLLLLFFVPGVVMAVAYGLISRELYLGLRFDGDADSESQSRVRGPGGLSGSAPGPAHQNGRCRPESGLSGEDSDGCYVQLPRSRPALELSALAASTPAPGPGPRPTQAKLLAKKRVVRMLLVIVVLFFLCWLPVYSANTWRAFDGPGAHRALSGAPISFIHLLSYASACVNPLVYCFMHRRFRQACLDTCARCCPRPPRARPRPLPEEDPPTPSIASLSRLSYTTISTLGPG
Method: (§1) For this purpose binding tests were performed on cerebral cortex of male albino guinea pigs outbred from the Hartley strain, using as marked binder the [^125I]-BH-CCK-8 sulphate, according to the procedure described by Makovec F. [J. Med. Chem. 35, (1992),28].
(§2) The incubation of the cerebral membranes together with the radioactive tracers and the compounds under study was effected on multi-well plates for 120 minutes at 25° C. Each well contained membrane corresponding to about 0.5 mg of proteins/ml and 25 pM of marked binder in a total volume of 250 micro litres. The specific binding was determined as the difference between the binding in the absence and in the presence of CCK-8, 1.10^−6M. At the end of the incubation a rapid filtration of the plate was performed under vacuum and the radioactivity of the individual filters extracted from the wells was measured with a γ-emission counter. The results obtained are shown in Table 3, in which the tested compounds are indicated, the IC50 calculated with the regression method on a set of at least 3 tests for each compound studied and an index derived from the ratio of the affinity obtained for the two types of receptor CCK-2 and CCK-1.

[3] = test system: CCK-2 receptor; assay: as above; set-up: species or system guinea pig; settings: IC50 CCK-2 (guinea pig cortex) / IC50 CCK-1 (rat pancreatic acini, Table 2)
Method: as §1, §2

[4] = molecular target: T3, CCK-1 (guinea pig gall bladder) (Cavia porcellus, UniProt Q63931); assay: Inhibition of the in vitro CCK-8 induced contraction of guinea pig gall bladder; type: cell-based; settings: CCK-8 5 ng/ml; average of at least two experiments, 6-8 concentrations
T3 construct: A guinea pig gall bladder stimulated in vitro by CCK-8; from tissue; host or cells: isolated guinea pig gall bladder
T3 sequence (Q63931 1-430): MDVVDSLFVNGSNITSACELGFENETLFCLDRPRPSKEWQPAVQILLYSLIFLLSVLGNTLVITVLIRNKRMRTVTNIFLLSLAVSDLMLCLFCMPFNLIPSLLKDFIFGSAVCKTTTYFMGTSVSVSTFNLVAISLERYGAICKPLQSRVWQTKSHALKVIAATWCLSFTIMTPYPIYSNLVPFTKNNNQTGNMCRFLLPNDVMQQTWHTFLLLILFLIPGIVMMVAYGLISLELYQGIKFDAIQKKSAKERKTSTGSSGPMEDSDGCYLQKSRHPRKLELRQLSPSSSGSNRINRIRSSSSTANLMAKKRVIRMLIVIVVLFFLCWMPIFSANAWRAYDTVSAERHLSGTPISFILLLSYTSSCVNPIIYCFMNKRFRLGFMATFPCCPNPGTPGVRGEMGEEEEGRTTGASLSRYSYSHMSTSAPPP
Excerpt: A guinea pig gall bladder stimulated in vitro by CCK-8 according to the method described by Makovec et al. was used as an experimental model. [Arzneim. Forsch. Drug Res. 35 (7), 1048 (1985)]. The results thus obtained are illustrated in the following Table 4 in which the values of IC50 (moles/litre) are reported.

[5] = 30 minutes at 37° C., at least 3 experiments, read-out: IC50, inhibition of binding of [125I]-BH-CCK-8 to isolated rat pancreatic acini

IC50 [2] [µM]	index derived from the ratio of the affinity obtained for the two types of receptor CCK-2 and CCK-1 [3]	IC50 [4] [nM]	affinity for the CCK-1 receptors of the pancreatic acini of rat, in words [1]	IC50 [1, 5] [nM]	SMILES	IC50 [1] [nM]
> 30	>4286	8	nanomolar level	7	Cc1ccccc1CCC(NC(=O)c1ccccc1NC(=O)c1cc2ccccc2[nH]1)C(=O)O (centres unmarked) [Compound 25]	–
3.5	437.5	30	nanomolar level	8	COc1ccccc1CCC(NC(=O)c1ccccc1NC(=O)c1cc2ccccc2[nH]1)C(=O)O (centres unmarked) [Compound 30]	–

Continued, compound first:

SMILES	IC50 [2] [µM]	index derived from the ratio of the affinity obtained for the two types of receptor CCK-2 and CCK-1 [3]	IC50 [4] [nM]	affinity for the CCK-1 receptors of the pancreatic acini of rat, in words [1]	IC50 [1, 5] [nM]	IC50 [1] [nM]
O=C(Nc1ccccc1C(=O)NC(CCc1ccccc1)C(=O)O)c1cc2ccccc2[nH]1 (centres unmarked) [Compound 20]	2.22	158.6	35	–	–	14
O=C(Nc1ccccc1C(=O)N[C@H](CCc1ccccc1)C(=O)O)c1cc2ccccc2[nH]1 [Compound 21]	3.8	422.2	20	nanomolar level	–	9
O=C(Nc1ccccc1C(=O)NC(CCc1ccccc1)C(=O)O)c1cc2cc(F)ccc2[nH]1 (centres unmarked) [Compound 23]	10.8	1542.9	15	nanomolar level	7	–
Cc1ccccc1CCC(NC(=O)c1ccccc1NC(=O)c1cc2cc(F)ccc2[nH]1)C(=O)O (centres unmarked) [Compound 26]	5.15	572.2	43	nanomolar level	9	–

From patent US7294648B2, “Anthranyl derivatives having an anticholecystokinin activity (anti-cck-1), a process for their preparation, and pharmaceutical use thereof” (Rottapharm S.p.A., priority 2002, dated 2007)
